Structures are written as SMILES.

This note sets out measurements from patent publication US20250034520A1, “INCREASING DEVELOPMENTAL POTENTIAL OF HUMAN PREIMPLANTATION EMBRYOS BY REDUCING GENETIC INSTABILITY, ANEUPLOIDIES AND CHROMOSOMAL MOSAICISM” (THE TRUSTEES OF COLUMBIA UNIVERSITY IN THE CITY OF NEW YORK, priority 2022, published 2025).

This experiment concerns human embryos. In words: single-cell/single-nuclei sequencing chromosome content analysis, human embryos. The experiment is classed as cell-based. On the procedure:
Embryos, mouse and human, were cultured in Global Total (Life-Global) for the duration of the experiments and with added compounds as outlined below. Incubation in RNA polymerase inhibitors triptolide (1 mM) or alpha amanitin (20 mg/ml) was performed from the 2PN stage (day1) to day3 of human development. Incubation in aphidicolin was performed at 2 mM. […] Mirin was used at a concentration of 50 mM. Olaparib was used to inhibit PARP at a concentration of 10 mM. All experiments were conducted during incubation at 37° C. with 5% CO2 and 19-20% O2. Chemical stock solutions were prepared in DMSO at concentrations at least 1000× higher than the final concentration.
Single cells from blastomeres were collected on the heated stage (Tokai Hit) of an Olympus IX71 inverted microscope equipped with Narishige micromanipulators and a zona pellucida laser (Hamilton-Thorne). Single nuclei were isolated from blastomeres by lysis and dissection of different nuclei using two […] diameter Piezo micropipettes and Holding pipette (Origio). Single embryo cells or nuclei were placed manually in single wells of a 96-well plate containing 9 ml of lysis buffer, prepared as a master mix of 798 ml H2O, 6 ml of 10 mg/mL Proteinase K solution (Sigma-Aldrich), and 96 ml 10× Single Cell Lysis and Fragmentation buffer (Sigma-Aldrich). Single cells/single nuclei were lysed by heating 96-well plates containing single cells/single nuclei at 50° C. for 1 hour, followed by incubation at 99° C. for four minutes using a PCR thermocycler. Single-cell/single-nuclei whole genome amplification (WGA) using degenerate oligo-nucleotide priming PCR (DOP-PCR) was performed using the SEQPLEX Enhanced DNA Amplification Kit (SEQXE, Sigma) according to the manufacturer's instructions. In addition, a modified version of the DOP-PCR protocol that allows inline indexing of WGA DNA was also applied. WGA DNA was subsequently processed for Illumina library sequencing preparation using standard TruSeq indexing methods via the NEBNext Ultra II DNA Library Prep Kit for Illumina (New England Biolabs). NEBNext Multiplex Oligos for Illumina (96 index primers) were used for four amplification cycles. Library DNA was quantified using Qubit dsDNA HS Assay Kit (Invitrogen, Carlsbad, CA, USA) and library size distribution was confirmed using a 2100 Bioanalyzer DNA 1000 Kit (Agilent, Santa Clara, CA, USA). A unimodal curve centered around 300-500 bp was scored as a successful library preparation. Subsequently, 30 mL of each pooled library was sent for sequencing at a concentration of 20 ng/ml. Mutiplex sequencing was performed using Illumina HiSeq 2500 single end indexed run (SR100) while targeting a coverage of approximately 1 million reads per cell/nuclei, sufficient for quantitative genome-wide copy number analysis.
Analysis of DNA sequencing data was performed as previously described (Baslan et al., 2015) with minor modifications as outlined below. Briefly, multiplex sequencing data were demultiplexed according to unique barcodes with reads assigned to their respective single-cell or single-nuclei. Unique reads were aligned to the reference human and mouse genome builds, hg19 and mm9, respectively. Each genome was partitioned into 5000 bins using a previously described algorithm (Varbin) that corrects for genome sequence mappability (Baslan et al., 2012; Navin et al., 2011). Uniquely mapped reads were sorted, indexed and subsequently counted within the partitioned genomic bins. For single-cell copy number inference, read count data were normalized genome-wide followed by CBS segmentation (Olshen et al., 2004) and transformed into integer copy number states using a least-squares fit approach (Baslan et al., 2015).
Copy number inference from single-nuclei sequencing data was performed similarly with the exception that bin read counts were initially processed using Kernel Density Estimation (KDE) resulting in two primary densities. […]

Setting [1] is: aphidicolin and G2 checkpoint kinase inhibitor at 15.5 h.

With `C[C@@]1(CO)[C@H](O)CC[C@@]2(C)[C@H]1CC[C@H]1C[C@@H]3C[C@@]12CC[C@]3(O)CO` [aphidicolin], the chromosomal breaks identified (4 2PN zygotes, aphidicolin and CHK1 inhibitor at 18 h post ICSI) is recorded as 7. Besides, under “addition of aphidicolin to CHK1 inhibition in G2 phase”, the aneuploidy result is recorded as “further amplified”. Moreover, under setting [1], the “chromosomes with one or more segmental copy-number transitions, share” value is recorded as 27%; the “independent break points per embryo, average” value was found to be 51; the “whole-chromosome losses, share of aneuploid chromosomes in micronuclei” value was found to be 73%. Further, the total break sites (aphidicolin and G2 checkpoint kinase inhibitor at 15.5 h, 21 micronuclei from 4 zygotes) is reported as 331. For the same compound, the human embryos aneuploid entry (combined aphidicolin exposure and G2 checkpoint inhibition) was “all”.
